Test results reported in US20230136717A1, “EPLIN AS A BIOMARKER FOR CANCER” (Turun yliopisto, priority 2020, published 2023).

Experiments:
[1] = tested on: HNSCC cell lines; experiment: Sensitivity of HNSCC cell lines to EGFR-TKi after silencing EPLIN; format: cell-based; conditions: siRNA silencing of EPLIN; FIG. 6C
[2] = tested on: HNSCC patient samples; experiment: Cancer drug sensitivity testing on nonselected HNSCC patient samples (Misvik Oy); format: cell-based; conditions: for drug sensitivity: EPLIN positive HNSCC, more than 160 cancer drugs tested, all results not shown
Description: Our proof-of-concept study featured testing the sensitivity of more than 160 cancer drugs on nonselected HNSCC patient samples using an internationally validated method (Misvik Oy, Turku, Finland).

Structure (SMILES) | sensitivity of HNSCC cells to the drug on silencing EPLIN expression [1] | drug sensitivity [2] | effect relative to the other tested EGFR-TKis [1] | function as precision therapy ([2]; several EPLIN positive HNSCC patients, FIG. 7A)
CNC(=O)CN1CCC(Oc2cc3c(Nc4cccc(Cl)c4F)ncnc3cc2OC)CC1 [AZD8931] | decreases sensitivity |  |  | 
C=CC(=O)Nc1cc(Nc2nccc(-c3cn(C)c4ccccc34)n2)c(OC)cc1N(C)CCN(C)C [AZD9291] | decreases sensitivity |  |  | 
C=CC(=O)Nc1cc2c(Nc3ccc(F)c(Cl)c3)ncnc2cc1OCCCN1CCOCC1 [Canertinib] |  | highest sensitivity |  | 
C#Cc1cccc(Nc2ncnc3cc(OCCOC)c(OCCOC)cc23)c1 [Erlotinib] | decreases sensitivity | highest sensitivity | best result | proven to function as precision therapy
COc1cc2ncnc(Nc3ccc(F)c(Cl)c3)c2cc1OCCCN1CCOCC1 [Gefitinib] |  | highest sensitivity |  | 
CCOc1cc2ncc(C#N)c(Nc3ccc(OCc4ccccn4)c(Cl)c3)c2cc1NC(=O)/C=C/CN(C)C [Neratinib] | decreases sensitivity |  |  | 
